Data on one substance can be found in patent publication US20240374692A1, “A NOVEL ACYLATED INSULIN ANALOG” (SUNSHINE LAKE PHARMA CO., LTD., priority 2021, published 2024).

In series [1] the test system is STZ-induced type I diabetes mellitus (T1DM) C57BL/6 mice. As to the kind of experiment: Hypoglycemic effect, repeated administration (three times) to STZ-induced T1DM C57BL/6 mice (Example 6). To be noted: for random blood glucose: 500 nmol/Kg S.C. three times, Mean ± SEM, n = 7. Also noted: key to random blood glucose: blood glucose in mmol/L. Format: in vivo. On the procedure:
SPF grade C57BL/6 mice were reared in a suitable rearing box in a barrier environment, with a rearing temperature of 20-26° C., a humidity of 40-70%, a time between day and night of 12 h/12 h, and the mice had free access to standard food and autoclaved sterilization water. After the 3-day quarantine period and the 2-day acclimation period, the mice were fasted for 12 h, and the mice were injected intraperitoneally with streptozotocin solution (STZ, 13 mg/mL, in citrate buffer) at 130 mg/kg. 3 Days and 7 days after administration of streptozotocin, random blood glucose and fasting blood glucose were detected, and the random blood glucose value above 25 mmol/L and fasting blood glucose value above 11.1 mmol/L were selected as T1DM model mice for follow-up experiments. On the day before administration, random blood glucose was monitored and mice were weighed. Mice were divided into 6 groups according to random blood glucose and body weight.
Subcutaneous administration (S.C.) was used to administer the corresponding vehicle or drug, once every 4-5 days, for a total of 3 administrations. During the experiment, the animals were allowed to eat and drink water freely. The random blood glucose before the first administration, and 0.25, 0.5, 1, 2, 4, 6, 8, 10, 24, 48, 72, and 96 h after administration were assessed, as well as the random blood glucose before the second and third administration, and 0.5, 1, 2, 6, 24, 48, 72, 96 and 120 h after administration.
All raw data were entered into Excel files and expressed as Mean±SEM. Statistical analysis of data was performed using Graphpad Prism 7.0 software, one-way or two-way ANOVA comparison method, and P<0.05 was used as the criterion for significant differences.

For series [2] the following is noted: mouse, in vivo, sc, 10 nmol/kg.

As for “A14E, B16E, B25H, B29K(N(ε)-COOH(CH2)18CO-L-Lys-CO(CH2)2CO—(OEG)2), desB30 human insulin analog [Insulin-a3]”, in series [1] (500 nmol/Kg S.C.), the “effective glucose control time” value was in the range of 96 to 120 h. Further, the random blood glucose in series [1] (Day 0 (1st)) was 31.8 ± 3.2; in series [1] (Day 1) it was 20.7 ± 5.2; in series [1] (Day 4 (2nd)) it was 29.7 ± 3.7; in series [1] (Day 5), 20.1 ± 5.4; in series [1] (Day 9 (3rd)), 27.7 ± 6.2; in series [1] (Day 10), 16.0 ± 9.4. The substance also gave a random blood glucose in series [1] (Day 14) of 27.4 ± 6.3. The “time after administration at which blood glucose returned to normal level” value is given as 96 h in series [1] (500 nmol/Kg S.C., after the first and second administrations); 120 h in series [1] (500 nmol/Kg S.C., after the third administration). Besides, in series [1] (Icodec 250, 500 and 1000 nmol/kg, Insulin-a3 and Insulin-a10 500 nmol/Kg), the “time after each administration at which blood glucose reached the lowest level” value came to 24 h. Also, in series [1] (test drug 500 nmol/Kg S.C.), the “glucose control effect compared with the Icodec-500 nmol/kg group” value is “better”. Further, the “glucose control effect compared with the Icodec-1000 nmol/kg group” value in series [1] (test drug 500 nmol/Kg S.C.) is recorded as “slightly worse”. Further, the AUClast in series [2] turned out to be 12300 ng·h/mL. The same substance had a T1/2 in series [2] of 18.6 h.
